Test results published in patent publication US6995182B2, “1-sulfonyl pyrrolidine derivatives” (Hoffmann-La Roche Inc., priority 2000, dated 2006).

Row | SMILES | melting point
1 | Cc1ccc(S(=O)(=O)N2[C@@H](C(=O)NCc3cccnc3)CC[C@H]2c2ccc(F)cc2)cc1.Cl (racemic) | 186 °C
2 | COC(=O)[C@H]1CC[C@@H](c2ccc(F)cc2)N1S(=O)(=O)c1ccc(C)cc1 (racemic) [Example 1, (2RS,5SR)-5-(4-Fluoro-phenyl)-1-(toluene-4-sulfonyl)-pyrrolidine-2-carboxylic acid methyl ester] | 91 °C
3 | Cc1ccc(S(=O)(=O)N2[C@@H](CO)CC[C@H]2c2ccc(F)cc2)cc1 (racemic) [Example 2, (2RS,5SR)-[5-(4-Fluoro-phenyl)-1-(toluene-4-sulfonyl)-pyrrolidin-2-yl]-methanol] | 82 °C
4 | Cc1ccc(S(=O)(=O)N2[C@@H](C(N)=O)CC[C@H]2c2ccc(F)cc2)cc1 (racemic) [Example 3, (2RS,5SR)-5-(4-Fluoro-phenyl)-1-(toluene-4-sulfonyl)-pyrrolidine-2-carboxylic acid amide] | 137 °C
5 | Cc1ccc(S(=O)(=O)N2[C@@H](C(=N)NO)CC[C@H]2c2ccc(F)cc2)cc1 (racemic) [Example 7, (2RS,5SR)-5-(4-Fluoro-phenyl)-N-hydroxy-1-(toluene-4-sulfonyl)-pyrrolidine-2-carboxamidine] | 217 °C
6 | COC[C@@H]1CC[C@H](c2ccc(F)cc2)N1S(=O)(=O)c1ccc(C)cc1 (racemic) [Example 8, (2RS,5SR)-2-(4-Fluoro-phenyl)-5-methoxymethyl-1-(toluene-4-sulfonyl)-pyrrolidine] | 152 °C
7 | CC(=O)NC[C@H]1CC[C@@H](c2ccc(F)cc2)N1S(=O)(=O)c1ccc(C)cc1 (racemic) [Example 9, (2RS,5SR)-N-[5-(4-Fluoro-phenyl)-1-(toluene-4-sulfonyl)-pyrrolidin-2-yl-methyl]-acetamide] | 117 °C
8 | Cc1ccc(S(=O)(=O)N2[C@@H](CC#N)CC[C@H]2c2ccc(F)cc2)cc1 (racemic) [Example 10, (2RS,5SR)-[5-(4-Fluoro-phenyl)-1-(toluene-4-sulfonyl)-pyrrolidin-2-yl]-acetonitrile] | 116 °C
9 | Cc1ccc(S(=O)(=O)N2[C@@H](c3ncon3)CC[C@H]2c2ccc(F)cc2)cc1 (racemic) [Example 14, (2RS,5SR)-3-[5-(4-Fluoro-phenyl)-1-(toluene-4-sulfonyl)-pyrrolidin-2-yl]-[1,2,4]oxadiazole] | 165 °C
10 | CCC(=O)NC[C@H]1CC[C@@H](c2ccc(F)cc2)N1S(=O)(=O)c1ccc(C)cc1 (racemic) [Example 15, (2RS,5SR)-N-[5-(4-Fluoro-phenyl)-1-(toluene-4-sulfonyl)-pyrrolidin-2-yl-methyl]-propionamide] | 142 °C
11 | Cc1ccc(S(=O)(=O)N2[C@@H](CCNC(=O)c3ccccc3)CC[C@H]2c2ccc(F)cc2)cc1 (racemic) [Example 18, (2RS,5SR)-N-{2-[5-(4-Fluoro-phenyl)-1-(toluene-4-sulfonyl)-pyrrolidin-2-yl]-ethyl}-benzamide] | 60 °C
12 | CC(=O)NCC[C@H]1CC[C@@H](c2ccc(F)cc2)N1S(=O)(=O)c1ccc(C)cc1 (racemic) [Example 20, (2RS,5SR)-N-{2-[5-(4-Fluoro-phenyl)-1-(toluene-4-sulfonyl)-pyrrolidin-2-yl]-ethyl}-acetamide] | 124 °C
13 | Cc1ccc(S(=O)(=O)N2[C@@H](c3nc(C)no3)CC[C@H]2c2ccc(F)cc2)cc1 (racemic) [Example 25, (2RS,5SR)-5-[5-(4-Fluoro-phenyl)-1-(toluene-4-sulfonyl)-pyrrolidin-2-yl]-3-methyl-[1,2,4]oxadiazole] | 128 °C
14 | Cc1ccc(S(=O)(=O)N2[C@@H](c3ncn(C)n3)CC[C@H]2c2ccc(F)cc2)cc1 (racemic) [Example 26, (2RS,5SR)-3-[5-(4-Fluoro-phenyl)-1-(toluene-4-sulfonyl)-pyrrolidin-2-yl]-1-methyl-1H-[1,2,4]triazole] | 160 °C
15 | Cc1ccc(S(=O)(=O)N2[C@@H](c3nnn(C)n3)CC[C@H]2c2ccc(F)cc2)cc1 (racemic) [Example 27, (2RS,5SR)-5-[5-(4-Fluoro-phenyl)-1-(toluene-4-sulfonyl)-pyrrolidin-2-yl]-2-methyl-2H-tetrazole] | 150 °C
16 | Cc1ccc(S(=O)(=O)N2[C@@H](CCC(N)=O)CC[C@H]2c2ccc(F)cc2)cc1 (racemic) [Example 29, (2RS,5SR)-3-[5-(4-Fluoro-phenyl)-1-(toluene-4-sulfonyl)-pyrrolidin-2-yl]-propionamide] | 136 °C
17 | Cc1ccc(S(=O)(=O)N2[C@@H](CCc3nc(C)no3)CC[C@H]2c2ccc(F)cc2)cc1 (racemic) [Example 30, (2RS,5SR)-5-{2-[5-(4-Fluoro-phenyl)-1-(toluene-4-sulfonyl)-pyrrolidin-2-yl]-ethyl}-3-methyl-[1,2,4]oxadiazole] | 91 °C
18 | Cc1ccc(S(=O)(=O)N2[C@@H](CCC#N)CC[C@H]2c2ccc(F)cc2)cc1 (racemic) [Example 31, (2RS,5SR)-3-[5-(4-Fluoro-phenyl)-1-(toluene-4-sulfonyl)-pyrrolidin-2-yl]-propionitrile] | 86 °C
19 | Cc1ccc(S(=O)(=O)N2[C@@H](CCC(=N)NO)CC[C@H]2c2ccc(F)cc2)cc1 (racemic) [Example 34, (2RS,5SR)-3-[5-(4-Fluoro-phenyl)-1-(toluene-4-sulfonyl)-pyrrolidin-2-yl]-N-hydroxy-propionamidine] | 134 °C
20 | Cc1ccc(S(=O)(=O)N2[C@@H](CNC(=O)C3CCCC3)CC[C@H]2c2ccc(F)cc2)cc1 (racemic) [Example 37, (2RS,5SR)-Cyclopentanecarboxylic acid [5-(4-fluoro-phenyl)-1-(toluene-4-sulfonyl)-pyrrolidin-2-yl-methyl]-amide] | 147 °C
21 | Cc1ccc(S(=O)(=O)N2[C@@H](CNC(=O)C(C)(C)C)CC[C@H]2c2ccc(F)cc2)cc1 (racemic) [Example 38, (2RS,5SR)-N-[5-(4-Fluoro-phenyl)-1-(toluene-4-sulfonyl)-pyrrolidin-2-yl-methyl]-2,2-dimethyl-propionamide] | 128 °C
22 | Cc1ccc(S(=O)(=O)N2[C@@H](CCCO)CC[C@@H]2c2ccc(F)cc2)cc1 (racemic) [Example 44, (2RS,5RS)-3-[5-(4-Fluoro-phenyl)-1-(toluene-4-sulfonyl)-pyrrolidin-2-yl]-propan-1-ol] | 93 °C
23 | Cc1ccc(S(=O)(=O)N2[C@H](CCCC#N)CC[C@@H]2c2ccc(F)cc2)cc1 (racemic) [Example 45, (2RS,5RS)-4-[5-(4-Fluoro-phenyl)-1-(toluene-4-sulfonyl)-pyrrolidin-2-yl]-butyronitrile] | 74 °C
24 | Cc1ccc(S(=O)(=O)N2[C@H](CCCc3nnn(C)n3)CC[C@@H]2c2ccc(F)cc2)cc1 (racemic) [Example 49, (2RS,5RS)-5-{3-[5-(4-Fluoro-phenyl)-1-(toluene-4-sulfonyl)-pyrrolidin-2-yl]-propyl}-2-methyl-2H-tetrazole] | 107 °C
25 | Cc1ccc(S(=O)(=O)N2[C@H](CCCc3nnnn3C)CC[C@@H]2c2ccc(F)cc2)cc1 (racemic) [Example 50, (2RS,5RS)-5-{3-[5-(4-Fluoro-phenyl)-1-(toluene-4-sulfonyl)-pyrrolidin-2-yl]-propyl}-1-methyl-1H-tetrazole] | 153 °C
